The numbers were not newly measured in US7576133B2, “Methods and compositions for nasal administration of modafinil” (priority 2002, dated 2009), which cites them from elsewhere.

Take `NC(=O)C[S+]([O-])C(c1ccccc1)c1ccccc1` (racemic) [Modafinil, 2-[(diphenylmethyl)sulfinyl] acetamide]: where the note is “lower alcohols”, the “solubility in lower alcohols” value is “slightly soluble”. In addition, the solubility in water entry (water) is given as “practically insoluble”.
